Measurements taken from US20220081412A1, “QUINOLINYL-PYRAZINE-CARBOXAMIDE COMPOUNDS AND USES THEREOF” (The Regents of the University of Michigan, priority 2018, published 2022).

Test system: MIA PaCa-2 cells
Test: Bru-seq analysis for nascent RNA synthesis (log2FC of genes, GSEA gene sets)
Type: cell-based, human
Details: 4 h
[1] = PYEON_CANCER_HEAD_AND_NECK_VS_CERVICAL_UP, C2, downregulated
[2] = RIGGINS_TAMOXIFEN_RESISTANCE_DN, C2, downregulated
[3] = SCHLOSSER_MYC_TARGETS_AND_SERUM_RESPONSE_DN, C2, downregulated
[4] = SENGUPTA_NASOPHARYNGEAL_CARCINOMA_UP, C2, downregulated
[5] = SENGUPTA_NASOPHARYNGEAL_CARCINOMA_WITH_LMP1_UP, C2, downregulated
[6] = SHEN_SMARCA2_TARGETS_UP, C2, downregulated
[7] = TAKEDA_TARGETS_OF_NUP98_HOXA9_FUSION_3D_UP, C2, downregulated
[8] = TAKEDA_TARGETS_OF_NUP98_HOXA9_FUSION_6HR_UP, C2, downregulated
[9] = TCANNTGAY_SREBP1_01, TFBT, upregulated
[10] = TGANNYRGCA_TCF11MAFG_01, TFBT, upregulated
[11] = TTTNNANAGCYR_UNKNOWN, TFBT, upregulated
[12] = YANG_BREAST_CANCER_ESR1_LASER_DN, C2, downregulated
[13] = ZHANG_BREAST_CANCER_PROGENITORS_UP, C2, downregulated
[14] = ZHANG_TLX_TARGETS_36HR_DN, C2, downregulated
[15] = ZHANG_TLX_TARGETS_DN, C2, downregulated
[16] = ZHENG_BOUND_BY_FOXP3, C2, downregulated
[17] = top upregulated noncoding genes, MIA PaCa-2 cells
[18] = top upregulated protein-coding genes, MIA PaCa-2 cells

**Q.** For Cc1cc(NC(=O)c2cnc(N3CCNCC3)cn2)c2ncccc2c1 [J28, N-(6-methylquinolin-8-yl)-5-(piperazin-1-yl)pyrazine-2-carboxamide], which ES (OCT1Q5_01, TFBT, upregulated) is on record?
**A.** 0.383

**Q.** What about the NES (OCT1Q5_01, TFBT, upregulated) of the same compound?
**A.** 1.568

**Q.** And the ES (PEA3_Q6, TFBT, upregulated)?
**A.** 0.389

**Q.** And the NES (PEA3_Q6, TFBT, upregulated)?
**A.** 1.645

**Q.** What about the log2FC (PHLDB2, downregulated protein-coding gene) of the same compound?
**A.** −0.93

**Q.** What about the log2FC (PTX3, downregulated protein-coding gene) of the same compound?
**A.** −1.04

**Q.** And the ES [1]?
**A.** −0.405

**Q.** And the NES [1]?
**A.** −1.998

**Q.** What about the ES [2] of the same compound?
**A.** −0.420

**Q.** And the NES [2]?
**A.** −1.996

**Q.** And the log2FC (RNVU1-6, downregulated noncoding gene)?
**A.** −1.29

**Q.** And the ES [3]?
**A.** −0.485

**Q.** What about the NES [3] of the same compound?
**A.** −1.909

**Q.** And the ES [4]?
**A.** −0.477

**Q.** And the NES [4]?
**A.** −2.454

**Q.** And the ES [5]?
**A.** −0.503

**Q.** And the NES [5]?
**A.** −2.612

**Q.** And the ES [6]?
**A.** −0.402

**Q.** And the NES [6]?
**A.** −2.248

**Q.** And the log2FC (SLCO1B3, downregulated protein-coding gene)?
**A.** −0.96

**Q.** And the log2FC (SPTY2D1-AS1, downregulated protein-coding gene)?
**A.** −0.93

**Q.** And the ES (SREBP1_01, TFBT, upregulated)?
**A.** 0.417

**Q.** And the NES (SREBP1_01, TFBT, upregulated)?
**A.** 1.757

**Q.** What about the ES (SREBP1_Q6, TFBT, upregulated) of the same compound?
**A.** 0.386

**Q.** And the NES (SREBP1_Q6, TFBT, upregulated)?
**A.** 1.611

**Q.** And the ES (SRF_01, TFBT, upregulated)?
**A.** 0.541

**Q.** And the NES (SRF_01, TFBT, upregulated)?
**A.** 1.708

**Q.** And the log2FC (SRRM1P2, downregulated noncoding gene)?
**A.** −0.97

**Q.** And the ES [7]?
**A.** −0.469

**Q.** What about the NES [7] of the same compound?
**A.** −1.940

**Q.** What about the ES [8] of the same compound?
**A.** −0.667

**Q.** What about the NES [8] of the same compound?
**A.** −2.252

**Q.** What about the ES [9] of the same compound?
**A.** 0.399

**Q.** What about the NES [9] of the same compound?
**A.** 1.843

**Q.** And the log2FC (TEX15, downregulated protein-coding gene)?
**A.** −0.95

**Q.** What about the ES [10] of the same compound?
**A.** 0.359

**Q.** What about the NES [10] of the same compound?
**A.** 1.552

**Q.** What about the ES [11] of the same compound?
**A.** 0.502

**Q.** And the NES [11]?
**A.** 1.859

**Q.** What about the log2FC (TXNRD3NB, downregulated protein-coding gene) of the same compound?
**A.** −0.86

**Q.** What about the log2FC (WWTR1-IT1, downregulated noncoding gene) of the same compound?
**A.** −1.14

**Q.** And the ES [12]?
**A.** −0.521

**Q.** And the NES [12]?
**A.** −1.924

**Q.** What about the ES [13] of the same compound?
**A.** −0.342

**Q.** And the NES [13]?
**A.** −1.914

**Q.** And the ES [14]?
**A.** −0.518

**Q.** What about the NES [14] of the same compound?
**A.** −2.618

**Q.** What about the ES [15] of the same compound?
**A.** −0.457

**Q.** And the NES [15]?
**A.** −2.032

**Q.** What about the ES [16] of the same compound?
**A.** −0.362

**Q.** And the NES [16]?
**A.** −1.929

**Q.** What about the log2FC (ZNF37A, downregulated protein-coding gene) of the same compound?
**A.** −0.93

**Q.** What about the log2FC (ZNF816, downregulated protein-coding gene) of the same compound?
**A.** −1.58

**Q.** And the “log2FC AC027307.3” value [17]?
**A.** 1.20

**Q.** And the “log2FC AC068473.5” value [17]?
**A.** 0.84

**Q.** And the “log2FC AC090826.2” value [17]?
**A.** 0.90

**Q.** What about the “log2FC AC092279.1” value [17] of the same compound?
**A.** 0.84

**Q.** And the “log2FC AC106886.2” value [17]?
**A.** 1.10

**Q.** What about the “log2FC AC141586.1” value [17] of the same compound?
**A.** 1.01

**Q.** And the “log2FC AC239868.4” value [17]?
**A.** 0.91

**Q.** And the “log2FC AL049543.1” value [17]?
**A.** 1.21

**Q.** And the “log2FC AP001065.1” value [17]?
**A.** 0.95

**Q.** And the “log2FC KRT18P31” value [17]?
**A.** 0.89

**Q.** What about the “log2FC PCBP2P1” value [17] of the same compound?
**A.** 0.84

**Q.** What about the “log2FC RN7SL16P” value [17] of the same compound?
**A.** 1.19

**Q.** And the “log2FC RPS16P5” value [17]?
**A.** 0.97

**Q.** And the “log2FC SLC2A1-AS1” value [17]?
**A.** 1.22

**Q.** What about the “log2FC SNHG20” value [17] of the same compound?
**A.** 1.06

**Q.** And the “log2FC SNORA3B” value [17]?
**A.** 0.88

**Q.** And the “log2FC SNORA65” value [17]?
**A.** 1.28

**Q.** And the “log2FC SNORA73B” value [17]?
**A.** 0.91

**Q.** And the “log2FC SNORA74D” value [17]?
**A.** 1.76

**Q.** And the “log2FC SNORD15A” value [17]?
**A.** 0.86

**Q.** And the “log2FC SNORD15B” value [17]?
**A.** 0.90

**Q.** And the “log2FC SNORD17” value [17]?
**A.** 1.17

**Q.** What about the “log2FC ST7-AS1” value [17] of the same compound?
**A.** 0.95

**Q.** What about the “log2FC SYPL1P2” value [17] of the same compound?
**A.** 0.85

**Q.** And the “log2FC TDRKH-AS1” value [17]?
**A.** 0.90

**Q.** What about the “log2FC ABHD14B” value [18] of the same compound?
**A.** 1.28

**Q.** What about the “log2FC AC099811.2” value [18] of the same compound?
**A.** 1.35

**Q.** And the “log2FC APRT” value [18]?
**A.** 1.39

**Q.** What about the “log2FC COMMD5” value [18] of the same compound?
**A.** 1.31

**Q.** What about the “log2FC DBP” value [18] of the same compound?
**A.** 1.90

**Q.** And the “log2FC DDX28” value [18]?
**A.** 1.46

**Q.** What about the “log2FC DHCR7” value [18] of the same compound?
**A.** 1.44

**Q.** What about the “log2FC DOLK” value [18] of the same compound?
**A.** 1.70

**Q.** And the “log2FC FASN” value [18]?
**A.** 1.28

**Q.** And the “log2FC H2AFX” value [18]?
**A.** 1.36

**Q.** What about the “log2FC HIST1H1D” value [18] of the same compound?
**A.** 1.36

**Q.** And the “log2FC HIST1H2BF” value [18]?
**A.** 1.63

**Q.** And the “log2FC HIST1H3B” value [18]?
**A.** 1.82

**Q.** And the “log2FC HIST1H3C” value [18]?
**A.** 1.45

**Q.** What about the “log2FC HIST1H3I” value [18] of the same compound?
**A.** 1.28

**Q.** And the “log2FC INSIG1” value [18]?
**A.** 1.65

**Q.** And the “log2FC MVK” value [18]?
**A.** 1.37

**Q.** What about the “log2FC ORMDL3” value [18] of the same compound?
**A.** 1.39

**Q.** What about the “log2FC PCYT2” value [18] of the same compound?
**A.** 2.03

**Q.** And the “log2FC POP7” value [18]?
**A.** 1.30

**Q.** What about the “log2FC RNF26” value [18] of the same compound?
**A.** 1.71

**Q.** What about the “log2FC SCD” value [18] of the same compound?
**A.** 1.67

**Q.** What about the “log2FC SDR39U1” value [18] of the same compound?
**A.** 1.67
